Measurements published in PubChem BioAssay (NCI).
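Growth conditions: 96-well plates. Treatment: test compound, 48 hours, 5 concentrations. Analysis: linear interpolation between bracketing concentrations; unreached endpoints set to highest concentration. At the GI50, growth is halved. TGI is the concentration that stops growth completely.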

Tests used:
Assay in all cases: DTP human tumour cell line panel, 48 h
[1] = tested on: NCI-H23 lung
[2] = tested on: HCT-15 colon
[3] = tested on: RPMI-8226 leukemia
[4] = tested on: U251 CNS
[5] = tested on: UACC-257 melanoma
[6] = tested on: HOP-62 NSCLC
[7] = tested on: MOLT-4 leukemia
[8] = tested on: NCI-H226 lung
[9] = tested on: SK-MEL-28 melanoma
[10] = tested on: A498 renal
[11] = tested on: NCI/ADR-RES ovarian
[12] = tested on: UO-31 renal
[13] = tested on: MDA-MB-435
[14] = tested on: DU-145 prostate
[15] = tested on: 786-0 renal
[16] = tested on: SK-MEL-2 melanoma
[17] = tested on: HT29 colon
[18] = tested on: OVCAR-8 ovarian
[19] = tested on: EKVX NSCLC
[20] = tested on: HOP-92 NSCLC
[21] = tested on: KM12 colon
[22] = tested on: NCI-H522 lung
[23] = tested on: HS 578T breast
[24] = tested on: T-47D breast
[25] = tested on: OVCAR-5 ovarian
[26] = tested on: SR leukemia
[27] = tested on: OVCAR-4 ovarian
[28] = tested on: HCT-116 colon
[29] = tested on: MDA-MB-231 breast
[30] = tested on: SK-OV-3 ovarian
[31] = tested on: NCI-H460 lung
[32] = tested on: RXF 393 renal
[33] = tested on: BT-549 breast
[34] = tested on: MCF7 breast
[35] = tested on: IGROV1 ovarian
[36] = tested on: SW-620 colon
[37] = tested on: HCC-2998 colon
[38] = tested on: OVCAR-3 ovarian
[39] = tested on: SNB-75 CNS
[40] = tested on: K-562 leukemia
[41] = tested on: SF-268 CNS
[42] = tested on: UACC-62 melanoma
[43] = tested on: SK-MEL-5 melanoma
[44] = tested on: TK-10 renal
[45] = tested on: COLO 205 colon
[46] = tested on: MALME-3M melanoma
[47] = tested on: SF-295 CNS
[48] = tested on: M14 melanoma
[49] = tested on: CCRF-CEM leukemia
[50] = tested on: ACHN renal
[51] = tested on: CAKI-1 renal
[52] = tested on: SN12C renal
[53] = tested on: SNB-19 CNS
[54] = tested on: SF-539 CNS
[55] = tested on: HL-60(TB) leukemia
[56] = tested on: A549 NSCLC
[57] = tested on: PC-3 prostate
[58] = tested on: LOX IMVI melanoma

Structure (SMILES): O=C1/C(=C/c2cccc(F)c2)CN(C(=O)C(Cl)Cl)C/C1=C\c1cccc(F)c1
- GI50 [1]: 234 nM
- TGI [1]: 690 nM
- GI50 [2]: 85.5 nM
- TGI [2]: 312 nM
- GI50 [3]: 31.8 nM
- TGI [3]: 169 nM
- GI50 [4]: 116 nM
- TGI [4]: 294 nM
- GI50 [5]: 606 nM
- TGI [5]: 1630 nM
- GI50 [6]: 353 nM
- TGI [6]: 1190 nM
- GI50 [7]: 90.5 nM
- TGI [7]: 3600 nM
- GI50 [8]: 259 nM
- TGI [8]: 685 nM
- GI50 [9]: 243 nM
- TGI [9]: 601 nM
- GI50 [10]: 628 nM
- TGI [10]: 2050 nM
- GI50 [11]: 304 nM
- TGI [11]: 1490 nM
- GI50 [12]: 176 nM
- TGI [12]: 387 nM
- GI50 [13]: 210 nM
- TGI [13]: 491 nM
- GI50 [14]: 392 nM
- TGI [14]: 1360 nM
- GI50 [15]: 217 nM
- TGI [15]: 536 nM
- GI50 [16]: 343 nM
- TGI [16]: 1270 nM
- GI50 [17]: 113 nM
- TGI [17]: 764 nM
- GI50 [18]: 184 nM
- TGI [18]: 1130 nM
- GI50 [19]: 263 nM
- TGI [19]: 804 nM
- GI50 [20]: 499 nM
- TGI [20]: 1440 nM
- GI50 [21]: 172 nM
- TGI [21]: 476 nM
- GI50 [22]: 202 nM
- TGI [22]: 522 nM
- GI50 [23]: 303 nM
- TGI [23]: 1250 nM
- GI50 [24]: 317 nM
- TGI [24]: 1760 nM
- GI50 [25]: 290 nM
- TGI [25]: 887 nM
- GI50 [26]: 29.6 nM
- TGI [26]: 465 nM
- GI50 [27]: 351 nM
- TGI [27]: 1380 nM
- GI50 [28]: 63.4 nM
- TGI [28]: 239 nM
- GI50 [29]: 248 nM
- TGI [29]: 671 nM
- GI50 [30]: 600 nM
- TGI [30]: 1790 nM
- GI50 [31]: 318 nM
- TGI [31]: 1090 nM
- GI50 [32]: 194 nM
- TGI [32]: 397 nM
- GI50 [33]: 252 nM
- TGI [33]: 787 nM
- GI50 [34]: 40.5 nM
- TGI [34]: 241 nM
- GI50 [35]: 209 nM
- TGI [35]: 531 nM
- GI50 [36]: 32.5 nM
- TGI [36]: 125 nM
- GI50 [37]: 272 nM
- TGI [37]: 737 nM
- GI50 [38]: 190 nM
- TGI [38]: 410 nM
- GI50 [39]: 392 nM
- TGI [39]: 1730 nM
- GI50 [40]: 33.2 nM
- GI50 [41]: 427 nM
- TGI [41]: 1750 nM
- GI50 [42]: 191 nM
- TGI [42]: 430 nM
- GI50 [43]: 200 nM
- TGI [43]: 431 nM
- GI50 [44]: 433 nM
- TGI [44]: 1450 nM
- GI50 [45]: 332 nM
- TGI [45]: 1160 nM
- GI50 [46]: 218 nM
- TGI [46]: 621 nM
- GI50 [47]: 217 nM
- TGI [47]: 629 nM
- GI50 [48]: 258 nM
- TGI [48]: 872 nM
- GI50 [49]: 34.5 nM
- TGI [49]: 17700 nM
- GI50 [50]: 212 nM
- TGI [50]: 517 nM
- GI50 [51]: 389 nM
- TGI [51]: 1440 nM
- GI50 [52]: 189 nM
- TGI [52]: 475 nM
- GI50 [53]: 204 nM
- TGI [53]: 604 nM
- GI50 [54]: 265 nM
- TGI [54]: 824 nM
- GI50 [55]: 218 nM
- TGI [55]: 773 nM
- GI50 [56]: 655 nM
- TGI [56]: 2140 nM
- GI50 [57]: 186 nM
- TGI [57]: 539 nM
- GI50 [58]: 38.5 nM
- TGI [58]: 109 nM
